In US9353076B2, “Crystal form of cabazitaxel and preparation method thereof” (Chongqing Taihao Pharmaceutical Co., Ltd., priority 2012, dated 2016):

Test: Accelerated stability test for a novel crystalline form of Cabazitaxel
Format: physicochemical

Substance	Content (%) (0 month)	Moisture (%) (0 month)	The other maximum individual impurity (%) (0 month)	Total impurity (%) (0 month)	Content (%) (1 month)	Moisture (%) (1 month)	The other maximum individual impurity (%) (1 month)	Total impurity (%) (1 month)	Content (%) (2 months)	Moisture (%) (2 months)	The other maximum individual impurity (%) (2 months)	Total impurity (%) (2 months)	Content (%) (3 months)	Moisture (%) (3 months)	The other maximum individual impurity (%) (3 months)	Total impurity (%) (3 months)	Content (%) (6 months)	Moisture (%) (6 months)	The other maximum individual impurity (%) (6 months)	Total impurity (%) (6 months)
4-acetoxy-2α-benzoyloxy-5β,20-epoxy-1-hydroxy-7β,10β-dimethoxy-9-oxo-11-taxadiene-13α-yl(2R,3S)-3-tert-butoxycarbonylamino-2-hydroxy-3-phenyl-propionate [crystalline form J of Cabazitaxel]	99.8%	0.40%	0.08%	0.25%	99.7%	0.44%	0.07%	0.25%	99.6%	0.46%	0.07%	0.28%	99.6%	0.50%	0.08%	0.26%	99.5%	0.48%	0.08%	0.28%
4-acetoxy-2α-benzoyloxy-5β,20-epoxy-1-hydroxy-7β,10β-dimethoxy-9-oxo-11-taxadiene-13α-yl(2R,3S)-3-tert-butoxycarbonylamino-2-hydroxy-3-phenyl-propionate [crystalline form I of Cabazitaxel]	99.7%	0.45%	0.06%	0.21%	99.6%	0.47%	0.06%	0.20%	99.7%	0.50%	0.05%	0.20%	99.6%	0.54%	0.06%	0.21%	99.5%	0.51%	0.06%	0.22%
4-acetoxy-2α-benzoyloxy-5β,20-epoxy-1-hydroxy-7β,10β-dimethoxy-9-oxo-11-taxadiene-13α-yl(2R,3S)-3-tert-butoxycarbonylamino-2-hydroxy-3-phenyl-propionate [crystalline form G of Cabazitaxel]	99.4%	1.92%	0.05%	0.17%	99.4%	1.96%	0.05%	0.16%	99.4%	1.99%	0.05%	0.17%	99.3%	2.03%	0.05%	0.16%	99.1%	2.09%	0.05%	0.16%
